Assay results from patent publication US9849099B2, “Antimicrobial compounds, compositions and methods of use thereof” (WISCONSIN ALUMNI RESEARCH FOUNDATION, priority 2014, dated 2017).
Converted amounts (≈) assume the structure as drawn. “And” between values parts separate entries of the source, which are not always exact repeats. Equal values may be shown once. Read-outs that look alike come from different tables or passages of the source.

Assays:
[1] = system: E. coli anucleate cell strain (SH3210); experiment: High throughput anucleate cell assay; type: cell-based, Escherichia coli; conditions: screen of small molecule libraries
Protocol: Briefly, E. coli anucleate cell strain (SH3210; ΔtrpR5 his λ pXX747) is used in the assay. […] The anucleated cells thus appear fluorescent in the presence of a fluorescent substrate (e.g., DDOAG) for LacZ. The protocol is summarized as follows: • 1. Prepare overnight culture of E. coli anucleate cell strain (SH3210) from LB-ampicillin plates. • 2. Dilute starter culture 1:1000 with liquid LB treated with 50 mg/ml of ampicillin and incubate for approximately 2.5 hr at 37° C. until approximately 0.1 OD600. • 3. Split diluted culture into wells (200 μL) • i. […] Negative control: 1 μL of DMSO • 4. Incubate diluted culture with compounds for approximately 2.5 hr at 42° C. at 300 rpm in a clear plate. • 5. Incubate cultures on ice for approximately 10 min until condensation on the cover disappears. • 6. Measure absorbance at a wavelength of 595 nm. • 7. In a black 96-well plate, add 80 μL of Z-buffer (600 mM Na2HPO4, 40 mM NaH2PO4, 10 mM KCl, 0.1 MgSO4) to each well pre-loaded with the following reagents: • a. Cell lysis solution called Popculture™ (1:5 Popculture™ to buffer). Popculture™ is a buffered mixture of concentrated detergents. • b. […] Shake for 30 s and measure fluorescence at a wavelength of 659 nm. • 13. Normalize the fluorescence measurements by dividing by OD595.

[2] = system: Salmonella typhimurium; experiment: MBC and antibacterial mode; type: cell-based
Protocol: (§1) The antibacterial mode (i.e., bactericidal, bacteriostatic) was determined by calculating the quotient of the MBC and the MIC. Compounds with a quotient >4 are defined as bacteriostatic; if the quotient is lower than 4, compounds are defined as bactericidal. A micro-dilution protocol was used to perform MIC and MBC experiments in triplicate according to the CLSI guidelines. […] The total volume (100 μL) in the wells with no visual growth were plated on 1.5% (w/v) LB agar or 1.5% (w/v) Mueller-Hinton agar with 5% sheep blood and incubated for 22 hours at 37° C.

[3] = system: Shigella boydii; experiment: MBC and antibacterial mode; type: cell-based
Protocol: as §1

[4] = system: Pseudomonas aeruginosa; experiment: MBC and antibacterial mode; type: cell-based
Protocol: as §1

[5] = system: Edwardsiella tarda; experiment: MBC and antibacterial mode; type: cell-based
Protocol: as §1

[6] = system: Vibrio cholerae; experiment: MBC and antibacterial mode; type: cell-based
Protocol: as §1

[7] = system: Enterobacter aerogenes; experiment: MBC and antibacterial mode; type: cell-based
Protocol: as §1

[8] = system: Acinetobacter baumannii; experiment: MBC and antibacterial mode; type: cell-based
Protocol: as §1

[9] = system: Klebsiella pneumoniae; experiment: MBC and antibacterial mode; type: cell-based
Protocol: as §1

[10] = system: Streptococcus pyogenes; experiment: MBC and antibacterial mode; type: cell-based
Protocol: as §1

[11] = system: Morganella morganii; experiment: MBC and antibacterial mode; type: cell-based
Protocol: as §1

[12] = system: Staphylococcus aureus; experiment: MBC and antibacterial mode; type: cell-based
Protocol: as §1

[13] = system: Salmonella typhimurium; experiment: MIC micro-dilution; type: cell-based
Protocol: (§2) Luria-Bertani (LB) media (10 g/L tryptone, 10 g/L NaCl, 5 g/L yeast extract, pH 7.0) was used to grow all bacterial strains, except Streptococcus pyogenes. Streptococcus pyogenes was grown in Mueller-Hinton broth containing 5% (v/v) sheep blood. All bacterial cultures were grown at 37° C. All the E. coli strains were grown while shaking at 200 rpm, while clinical pathogens were incubated without shaking.
(§3) The MIC of all the strains was determined in LB media except Streptococcus pyogenes, which was grown in Mueller-Hinton media containing 5% (v/v) sheep blood. The micro-dilution method was utilized in 96-well clear flat-bottom plates (100 μL/well) according to the CLSI guidelines. All strains were grown at 37° C. for 16-18 hours in presence of various concentrations of compound. The MIC was determined by a visual inspection and experiments were performed in triplicate.

[14] = system: Shigella boydii; experiment: MIC micro-dilution; type: cell-based; conditions: LB media, 37° C., 16-18 hours
Protocol: as §2, §3

[15] = system: Pseudomonas aeruginosa; experiment: MIC micro-dilution; type: cell-based
Protocol: as §2, §3

[16] = system: Bacillus subtilis 168; experiment: MIC micro-dilution; type: cell-based; conditions: Bacillus subtilis, 168
Protocol: as §2, §3

[17] = system: Edwardsiella tarda; experiment: MIC micro-dilution; type: cell-based
Protocol: as §2, §3

[18] = system: Vibrio cholerae; experiment: MIC micro-dilution; type: cell-based
Protocol: as §2, §3

[19] = system: Enterobacter aerogenes; experiment: MIC micro-dilution; type: cell-based
Protocol: as §2, §3

[20] = system: Acinetobacter baumannii; experiment: MIC micro-dilution; type: cell-based
Protocol: as §2, §3

[21] = system: Klebsiella pneumoniae; experiment: MIC micro-dilution; type: cell-based
Protocol: as §2, §3

[22] = system: Streptococcus pyogenes; experiment: MIC micro-dilution; type: cell-based; conditions: Mueller-Hinton media containing 5% (v/v) sheep blood, 37° C., 16-18 hours
Protocol: as §2, §3

[23] = system: Morganella morganii; experiment: MIC micro-dilution; type: cell-based
Protocol: as §2, §3

[24] = system: Staphylococcus aureus; experiment: MIC micro-dilution; type: cell-based
Protocol: as §2, §3

[25] = system: broad panel of human pathogens; experiment: MIC against the panel of pathogens; type: cell-based
Protocol: as §2, §3

With CCCCCCCCCOc1ccc2[nH]cc(CCN)c2c1 [Compound 1, 5-nonyloxytryptamine] the “hit in anucleate cell screen” value [1] was “potent hit”, the “Antibacterial Mode” value [2] was “Bacteriostatic (Compounds with a quotient >4 are defined as bacteriostatic)” and the MBC/MIC [2] was 4. The MBC ([2]; Salmonella enterica) was 24 mg/L (≈ 79.3 µM), the “Antibacterial Mode” value [3] was “Bactericidal (if the quotient is lower than 4, compounds are defined as bactericidal)” and the MBC [3] was 6 mg/L (≈ 19.8 µM). For the same compound, the MBC/MIC [3] was 1, the “Antibacterial Mode” value [4] was “Bacteriostatic (Compounds with a quotient >4 are defined as bacteriostatic)” and the MBC [4] was 96 mg/L (≈ 317 µM). The MBC/MIC [4] was 4, the “Antibacterial Mode” value [5] was “Bactericidal (if the quotient is lower than 4, compounds are defined as bactericidal)” and the MBC [5] was 12 mg/L (≈ 39.7 µM). For the same compound, the MBC/MIC [5] was 2, the “Antibacterial Mode” value [6] was “Bacteriostatic (Compounds with a quotient >4 are defined as bacteriostatic)” and the MBC [6] was 24 mg/L (≈ 79.3 µM). The MBC/MIC [6] was 4, the “Antibacterial Mode” value [7] was “Bacteriostatic (Compounds with a quotient >4 are defined as bacteriostatic)” and the MBC/MIC [7] was greater than 4. For the same compound, the MBC ([7]; Klebsiella aerogenes) was greater than 96 mg/L, the “Antibacterial Mode” value [8] was “Bactericidal (if the quotient is lower than 4, compounds are defined as bactericidal)” and the MBC [8] was 6 mg/L (≈ 19.8 µM). The MBC/MIC [8] was 1, the “Antibacterial Mode” value [9] was “Bactericidal (if the quotient is lower than 4, compounds are defined as bactericidal)” and the MBC [9] was 6 mg/L (≈ 19.8 µM). The MBC/MIC [9] was 1, the “Antibacterial Mode” value [10] was “Bactericidal (if the quotient is lower than 4, compounds are defined as bactericidal)” and the MBC [10] was 24 mg/L (≈ 79.3 µM). For the same compound, the MBC/MIC [10] was 1, the “Antibacterial Mode” value [11] was “Bactericidal (if the quotient is lower than 4, compounds are defined as bactericidal)” and the MBC [11] was 24 mg/L (≈ 79.3 µM). For the same compound, the MBC/MIC [11] was 2, the “Antibacterial Mode” value [12] was “Bactericidal (if the quotient is lower than 4, compounds are defined as bactericidal)” and the MBC [12] was 6 mg/L (≈ 19.8 µM). The MBC/MIC [12] was 2, the MIC ([13]; Salmonella enterica, TYPHIMURIUM) was 6 mg/L (≈ 19.8 µM) and the MIC ([13]; Salmonella typhimurium, LB media, 37° C., 16-18 hours) was 6.0 mg/L (≈ 19.8 µM). The MIC [14] was 6.0 mg/L (≈ 19.8 µM), the MIC ([14]; read-out: MIC) was 6 mg/L (≈ 19.8 µM) and the MIC [15] was 80 µM and 24 µg/mL. It also gave an MIC [16] of 0.76 mg/L (≈ 2.51 µM), an MIC [17] of 6 mg/L (≈ 19.8 µM) and an MIC ([17]; LB media, 37° C., 16-18 hours) of 6.0 mg/L (≈ 19.8 µM). For the same compound, the MIC [18] was 6 mg/L (≈ 19.8 µM), the MIC ([18]; LB media, 37° C., 16-18 hours) was 6.0 mg/L (≈ 19.8 µM) and the MIC ([19]; Enterobacter aerogenes, LB media, 37° C., 16-18 hours) was 6.0 mg/L (≈ 19.8 µM). It also gave an MIC ([19]; Klebsiella aerogenes) of 6 mg/L (≈ 19.8 µM), an MIC [20] of 6 mg/L (≈ 19.8 µM) and an MIC ([20]; LB media, 37° C., 16-18 hours) of 6.0 mg/L (≈ 19.8 µM). It also gave an MIC [21] of 6 mg/L (≈ 19.8 µM), an MIC ([21]; LB media, 37° C., 16-18 hours) of 6.0 mg/L (≈ 19.8 µM) and an MIC [22] of 24 mg/L (≈ 79.3 µM). For the same compound, the MIC [23] was 12 mg/L (≈ 39.7 µM), the MIC [24] was 3 mg/L (≈ 9.92 µM) and the MIC ([24]; LB media, 37° C., 16-18 hours) was 3.0 mg/L (≈ 9.92 µM). The MIC ([25]; Pseudomonas aeruginosa) was 5 to 20 µM and the MIC ([25]; against the pathogens tested, except Pseudomonas aeruginosa, read-out: MIC) was 3 to 12 mg/L.
